Read-outs that look alike come from different tables or passages of the source.
Tests used:
hQC = hQC (Homo sapiens, UniProt Q16769); assay: Fluorometric assay of glutaminyl cyclase (QC) inhibition, H-Gln-βNA or H-Gln-AMC substrate; type: biochemical
Procedure, shortened: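 Fluorometric coupled assays at 30° C in Tris/HCl pH 8.0 with EDTA and pyroglutamyl aminopeptidase used either 0.2 mM H-Gln-βNA (320/410 nm) or H-Gln-AMC (380/460 nm), started by QC. Screening used 4 mM inhibitor at substrate 1 KM. Ki came from fitting progress curves to competitive inhibition.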

[1] = compound from preparative synthesis, purified by chromatography, fluorescent assay, read-out: IC50 hQC

Sequence of hQC (Q16769 29-361): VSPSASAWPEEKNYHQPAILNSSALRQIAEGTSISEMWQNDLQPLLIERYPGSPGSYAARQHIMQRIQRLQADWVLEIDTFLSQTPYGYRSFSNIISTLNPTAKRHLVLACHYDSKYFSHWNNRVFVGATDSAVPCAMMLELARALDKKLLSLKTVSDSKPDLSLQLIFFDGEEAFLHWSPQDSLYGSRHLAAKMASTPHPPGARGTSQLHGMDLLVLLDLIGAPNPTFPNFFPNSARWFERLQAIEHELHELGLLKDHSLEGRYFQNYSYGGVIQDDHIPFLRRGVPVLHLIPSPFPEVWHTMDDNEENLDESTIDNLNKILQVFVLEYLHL

Compound	IC50 (hQC; [1]) [nM]	IC50 (hQC; read-out: IC50) [nM]	melting point [°C]
O=C(C/N=C1/NC(=O)N(c2ccc3[nH]cnc3c2)C1c1ccc(Cl)cc1)N1CCC(O)C1 (centres unmarked) [Compound 340, 1-(1H-Benzoimidazol-5-yl)-5-(4-chloro-phenyl)-4-2-(3-hydroxy-pyrrolidin-1-yl)-2-oxo-ethylimino-imidazolidin-2-one]	–	4000	–
O=C1N/C(=N/CCN2CCOCC2)C(c2cccc(Br)c2)N1c1ccc2nc[nH]c2c1 (centres unmarked) [Compound 341, 1-(3H-Benzoimidazol-5-yl)-5-(3-bromo-phenyl)-4-2-morpholin-4-yl-ethylimino-imidazolidin-2-one]	–	1300	–
O=C(C/N=C1/NC(=O)N(c2ccc3[nH]cnc3c2)C1c1cccc(Br)c1)N1CCSCC1 (centres unmarked) [Compound 342, 1-(1H-Benzoimidazol-5-yl)-5-(3-bromo-phenyl)-4-2-oxo-2-thiomorpholin-4-yl-ethylimino-imidazolidin-2-one]	–	400	–
O=C(C/N=C1\NC(=O)N(c2ccc3[nH]cnc3c2)C1c1ccnc2ccccc12)N1CCC(O)CC1 (centres unmarked) [Compound 343, 1-(1H-Benzoimidazol-5-yl)-4-2-(4-hydroxy-piperidin-1-yl)-2-oxo-ethylimino-5-quinolin-4-yl-imidazolidin-2-one]	–	6700	–
Cc1ccc(C2/C(=N/C3CCCCCC3)NC(=S)N2c2ccc3nc[nH]c3c2)c(C)c1 (centres unmarked) [Compound 344, 1-(3H-Benzoimidazol-5-yl)-4-cycloheptylimino-5-(2,4-dimethyl-phenyl)-imidazolidine-2-thione]	–	4900	–
O=C1N/C(=N/CCc2ccccn2)C(c2c[nH]c3cc(F)ccc23)N1c1ccc2[nH]cnc2c1 (centres unmarked) [Compound 345, 1-(1H-Benzoimidazol-5-yl)-5-(6-fluoro-1H-indol-3-yl)-4-2-pyridin-2-yl-ethylimino-imidazolidin-2-one]	–	4000	–

Other lines, results leading:

IC50 (hQC; [1]) [nM]	IC50 (hQC; read-out: IC50) [nM]	melting point [°C]	Compound
23.5	4	205	O=C1N/C(=N\C2CCCCC2)C(c2ccc(Br)cc2)N1c1ccc2nc[nH]c2c1 (centres unmarked) [Compound 199, 1-(1H-Benzoimidazol-5-yl)-5-(4-bromo-phenyl)-4-(cyclohexylimino)-imidazolidin-2-one]
22	4	244	O=C1N/C(=N/Cc2ccccc2)C(c2ccc(Br)cc2)N1c1ccc2[nH]cnc2c1 (centres unmarked) [Compound 216, 1-(1H-Benzoimidazol-5-yl)-4-benzylimino-5-(4-bromo-phenyl)-imidazolidin-2-one]
34.5	4	210	O=C1N/C(=N\C2CCCC2)C(c2ccc3[nH]ccc3c2)N1c1ccc2[nH]cnc2c1 (centres unmarked) [Compound 226, 1-(1H-Benzoimidazol-5-yl)-4-(cyclopentylimino)-5-(1H-indol-5-yl)-imidazolidin-2-one]
–	4	–	O=C1N/C(=N\C(Cc2ccccc2)c2ccccc2)C(c2cccc(Br)c2)N1c1ccc2[nH]cnc2c1 (centres unmarked) [Compound 338, 1-(1H-Benzoimidazol-5-yl)-5-(3-bromo-phenyl)-4-1,2-diphenyl-ethylimino-imidazolidin-2-one]
–	400	–	C/N=C1/NC(=O)N(c2ccc3[nH]cnc3c2)C1c1ccc(Cl)c(F)c1 (centres unmarked) [Compound 339, 1-(1H-Benzoimidazol-5-yl)-5-(4-chloro-3-fluoro-phenyl)-4-methylimino-imidazolidin-2-one]

From patent publication US20080221086A1, “Novel Inhibitors of Glutaminyl Cyclase” (PROBIODRUG AG, priority 2006, published 2008)
